Consider 27 compounds from patent US11261183B2, “Sulfoximine glycosidase inhibitors” (Asceneuron SA, priority 2016, dated 2022).

For data set [1], the target named is Human O-GlcNAcase (His-Tagged hOGA) (Homo sapiens (Human), UniProt O60502). Kind of data set: Human O-GlcNAcase enzyme inhibition assay. The format is biochemical. As to conditions: His-Tagged hOGA 20 nM, FL-GlcNAc 10 μM, 60 min, room temperature, pH 6.5; read-out: Enzymatic OGA IC50. On the procedure:
Example B01: Human O-GlcNAcase enzyme inhibition assay
5 μl of the appropriate concentration of a solution of inhibitor in McIlvaine's Buffer (pH 6.5) in 2% DMSO (for a dose response curve calculation) is added into each well of a 384-well plate (Greiner, 781900). Then, 20 nM of His-Tagged hOGA and 10 μM of FL-GlcNAc (Fluorescein mono-beta-D-(2-deoxy-2-N-acetyl) glucopyranoside; Marker Gene Technologies Inc, M1485) were added to the 384-well plate for a final volume of 20 μl. After incubation for 60 min at room temperature, the reaction was terminated by the addition of 10 μL of stop buffer (200 mM glycine, pH 10.75).

Data set [2] can be described thus: Protein binding in mice plasma using Rapid Equilibrium Dialysis. Type of data set: in vitro ADME, CD1 mice. As to conditions: male, CD1, mouse, plasma, pH 7.4, CD1 mouse plasma, 37° C. How it is done: Example B04: Protein binding in mice plasma using Rapid Equilibrium Dialysis
• CD1 Mice Plasma: pooled male, K2-EDTA ([…]2, Bioreclammation, USA • Phosphate Buffered Saline (1×PBS), pH 7.4, 100 mM (Sigma, Cat No. P4417) • RED inserts (Pierce, Cat No. 9006, 8 kDa MWCO) • Sample Analysis: LC-MS/MS Methods • Preparation of DMSO Stock Solution
From 20 mM DMSO stock solutions of reference and test compounds, 1 mM DMSO intermediate working solutions are prepared. From 1 mM intermediate working solutions, 100 μM DMSO working solutions are prepared. • Sample Preparation Procedure:
Selected plasma is brought from −20° C. to 37° C. using water bath before its use. Test solution is prepared by adding the DMSO working solution of the reference or test compound (2 μL; 100 μM) to the selected plasma (198 μL). Spiked plasma (200 μl) is transferred to sample compartment of RED insert placed in the teflon plate. 350 μl of 1×PBS is added in the buffer compartment of RED insert. The teflon plate is covered with sealing mat and agitated at 37° C. for 5 hours at 500 RPM in a Thermomixer. After incubation time, an aliquot of plasma (50 μl) from sample compartment is mixed with blank 1×PBS (50 μl). Similarly, an aliquot of buffer (50 μl) from buffer compartment is mixed with blank plasma (50 μl). Quenching solution (200 μL, acetonitrile containing internal standard tolbutamide (0.5 μg/mL)) is added and the resulting solutions are mixed using a vortex mixer and centrifuged (Eppendorf 5415, 13792 g). Supernatants are analyzed using a Mass Spectrometer. The sample (supernatant fraction, 5 μL) is injected into the LC-MS/MS instrument. • Chromatographic Conditions: LC-MS/MS: API 4000 LC-MS/MS Software: Analyst Version 1.6.1 Column Phenomenex Synergy 30*4.6*5μ Column Oven: 40° C. Mode: ESI Positive Injection volume: 5 μl Flow Rate: […] Buffer: 0.1% Formic acid in Water Method: Isocratic Method/Gradient Composition: A) 0.1% Formic acid in Water B) 0.1% Formic acid in Methanol
After the concentration of free drug and total drug has been determined by LCMS/MS, percent plasma protein binding can be calculated as follows:
[formula] Following this protocol, % fraction unbound in plasma from different species can be also measured.
For orientation: In equilibrium dialysis only unbound substance equilibrates across the membrane.

Each structure is given as a SMILES string.

Human O-GlcNAcase (His-Tagged hOGA), sequence (O60502 whole entry): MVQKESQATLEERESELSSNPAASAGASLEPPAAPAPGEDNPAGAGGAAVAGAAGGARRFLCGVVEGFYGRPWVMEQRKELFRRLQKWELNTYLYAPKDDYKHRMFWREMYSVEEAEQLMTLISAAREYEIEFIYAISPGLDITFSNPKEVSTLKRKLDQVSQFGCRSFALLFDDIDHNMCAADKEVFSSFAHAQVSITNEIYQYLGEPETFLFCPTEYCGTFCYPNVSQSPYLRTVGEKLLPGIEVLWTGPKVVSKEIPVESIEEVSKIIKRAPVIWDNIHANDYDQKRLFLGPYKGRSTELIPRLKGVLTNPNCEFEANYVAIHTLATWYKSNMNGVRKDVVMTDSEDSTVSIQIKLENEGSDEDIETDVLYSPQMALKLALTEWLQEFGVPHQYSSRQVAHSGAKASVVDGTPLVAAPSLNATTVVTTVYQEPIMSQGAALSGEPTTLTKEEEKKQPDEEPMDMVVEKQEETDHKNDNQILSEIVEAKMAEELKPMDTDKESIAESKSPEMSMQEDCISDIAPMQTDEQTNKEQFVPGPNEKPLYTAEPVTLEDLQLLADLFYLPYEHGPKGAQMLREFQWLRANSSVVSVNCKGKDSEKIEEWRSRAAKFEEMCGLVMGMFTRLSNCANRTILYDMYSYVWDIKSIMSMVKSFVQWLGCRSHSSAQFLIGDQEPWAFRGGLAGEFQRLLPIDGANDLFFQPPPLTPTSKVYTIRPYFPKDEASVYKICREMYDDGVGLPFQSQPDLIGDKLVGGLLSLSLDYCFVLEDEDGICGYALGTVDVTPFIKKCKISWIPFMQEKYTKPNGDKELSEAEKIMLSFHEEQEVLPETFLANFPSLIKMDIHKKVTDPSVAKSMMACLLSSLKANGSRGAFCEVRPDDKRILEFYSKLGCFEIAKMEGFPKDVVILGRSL

One may read the IC50 as the concentration at which inhibition is half-maximal. The fraction unbound is the share of the substance not bound to proteins or other matrix. Turning to `CC(c1ccc2c(c1)OCC2)N1CCN(c2ncc(S(C)(=N)=O)cn2)CC1` (racemic) [Example 1, (2-(4-(1-(2,3-dihydrobenzofuran-6-yl)ethyl)piperazin-1-yl)pyrimidin-5-yl)(imino)(methyl)λ^6-sulfanone], the IC50 in data set [1] is less than 50 nM. Further, the fraction unbound at 5 h, 1 µM in data set [2] came to 0.393. On to `CC1Cc2ccc(C(C)N3CCN(c4ncc(S(C)(=N)=O)cn4)CC3)cc2O1` (racemic) [Example 2, Imino(methyl)(2-(4-(1-(2-methyl-2,3-dihydrobenzofuran-6-yl)ethyl)piperazin-1-yl)pyrimidin-5-yl)-λ^6-sulfanone], for which the unbound share (fraction unbound) at 5 h, 1 µM in data set [2] came out at 0.222.

Take `CCS(=N)(=O)c1cnc(N2CCN(C(C)c3ccc4c(c3)OCC4)CC2)nc1` (racemic) [Example 3, (2-(4-(1-(2,3-dihydrobenzofuran-6-yl)ethyl)piperazin-1-yl)pyrimidin-5-yl)(ethyl)(imino)-λ^6-sulfanone]: in data set [1], the IC50 was less than 50 nM. In data set [2], the unbound share (fraction unbound) at 5 h, 1 µM was found to be 0.25.

As for `CCCS(=N)(=O)c1cnc(N2CCN(C(C)c3ccc4c(c3)OCC4)CC2)nc1` (racemic) [Example 4, (2-(4-(1-(2,3-dihydrobenzofuran-6-yl)ethyl)piperazin-1-yl)pyrimidin-5-yl)(imino)(propyl)-λ^6-sulfanone], the IC50 in data set [1] was less than 50 nM. For the same compound, the fraction unbound at 5 h, 1 µM in data set [2] was 0.142. On to `CCS(=N)(=O)c1ccc(N2CCN(C(C)c3ccc4c(c3)OCC4)CC2)nc1` (racemic) [Example 6, (6-(4-(1-(2,3-dihydrobenzofuran-6-yl)ethyl)piperazin-1-yl)pyridin-3-yl)(ethyl)(imino)-λ^6-sulfanone], for which the IC50 in data set [1] was less than 50 nM. Besides, the fraction unbound at 5 h, 1 µM in data set [2] is 0.261. On to `CC(c1ccc2c(c1)OCC2)N1CCN(c2ccc(S(C)(=N)=O)cn2)CC1` (racemic) [Example 7, (6-(4-(1-(2,3-dihydrobenzofuran-6-yl)ethyl)piperazin-1-yl)pyridin-3-yl)(imino)(methyl)-Δ^6-sulfanone], for which, in data set [1], the IC50 was less than 50 nM. Further, the fraction unbound at 5 h, 1 µM in data set [2] worked out at 0.294. The corresponding values for `CN=S(C)(=O)c1cnc(N2CCN(C(C)c3ccc4c(c3)OCC4)CC2)nc1` (racemic) [Example 8, (2-(4-(1-(2,3-dihydrobenzofuran-6-yl)ethyl)piperazin-1-yl)pyrimidin-5-yl)(methyl)(methylimino)-λ^6-sulfanone] are less than 50 nM and 0.234. As to `CC(c1ccc2c(c1)OCC2)N1CCN(c2ncc(N=S(C)(C)=O)cn2)CC1` (racemic) [Example 9], in data set [1], the 50% inhibitory concentration (IC50) is less than 50 nM. Moreover, in data set [2], the fraction unbound at 5 h, 1 µM stood at 0.376. In the case of `CC(C)N=S(C)(=O)c1cnc(N2CCN(C(C)c3ccc4scnc4c3)CC2)nc1` (racemic) [Example 28, (2-(4-(1-(benzo[d]thiazol-5-yl)ethyl)piperazin-1-yl)pyrimidin-5-yl)(isopropylimino)(methyl)-λ^6-sulfanone], the IC50 in data set [1] lay in the range of 50 to 200 nM. Regarding `CN=S(C)(=O)c1ccc(N2CCN(C(C)c3ccc4scnc4c3)CC2)nc1` (racemic) [Example 30, (6-(4-(1-(benzo[d]thiazol-5-yl)ethyl)piperazin-1-yl)pyridin-3-yl)(methyl)(methylimino)-λ^6-sulfanone], the IC50 in data set [1] was in the range of 50 to 200 nM. Turning to `CCS(=N)(=O)c1cnc(N2CCN(C(C)c3ccc4sc(C)nc4c3)CC2)nc1` (racemic) [Example 43, ethyl(imino)(2-(4-(1-(2-methylbenzo[d]thiazol-5-yl)ethyl)piperazin-1-yl)pyrimidin-5-yl)-λ^6-sulfanone], the IC50 in data set [1] was less than 50 nM.

`CCCS(=N)(=O)c1cnc(N2CCN(C(C)c3ccc4sc(C)nc4c3)CC2)nc1` (racemic) [Example 44, Imino(2-(4-(1-(2-methylbenzo[d]thiazol-5-yl)ethyl)piperazin-1-yl)pyrimidin-5-yl)(propyl)-λ^6-sulfanone]: the IC50 in data set [1] is less than 50 nM. `Cc1nc2cc(C(C)N3CCN(c4ccc(S(C)(=N)=O)cc4)CC3)ccc2s1` (racemic) [Example 50, imino(methyl)(4-(4-(1-(2-methylbenzo[d]thiazol-5-yl)ethyl)piperazin-1-yl)phenyl)-λ^6-sulfanone]: the IC50 in data set [1] was less than 50 nM. For `CC(c1ccc2nccnc2c1)N1CCN(c2ncc(S(C)(=N)=O)cn2)CC1` (racemic) [Example 57, imino(methyl)(2-(4-(1-(quinoxalin-6-yl)ethyl)piperazin-1-yl)pyrimidin-5-yl)-λ^6-sulfanone], the IC50 in data set [1] lay within 50 to 200 nM. Same read-out and setting: then `Cc1nc2cc(C(C)N3CCN(c4ncc5c(n4)CCS(=N)(=O)C5)CC3)ccc2s1` (racemic) [Example 58, 6-imino-2-(4-(1-(2-methylbenzo[d]thiazol-5-yl)ethyl)piperazin-1-yl)-5,6,7,8-tetrahydro-6λ^4-thiopyrano[4,3-d]pyrimidine 6-oxide], with less than 50 nM. Consider `CC(c1ccc2c(c1)OCC2)N1CCN(c2ncc(S(C)(=N)=O)cn2)CC1` (single isomer, unassigned) [Example 13], for which the IC50 in data set [1] lay within 200 to 1000 nM.

Regarding `CC(c1ccc2c(c1)OCC2)N1CCN(c2ncc(S(C)(=N)=O)cn2)CC1` (single isomer, unassigned) [Example 15], the IC50 in data set [1] was in the range of 1000 to 10000 nM. Take `CC(c1ccc2c(c1)OCC2)N1CCN(c2ncc(S(C)(=N)=O)cn2)CC1` (single isomer, unassigned) [Example 16, (2-(4-((S)-1-(2,3-dihydrobenzofuran-6-yl)ethyl)piperazin-1-yl)pyrimidin-5-yl)(imino)(methyl)-λ^6-sulfanone or (2-(4-((R)-1-(2,3-dihydrobenzofuran-6-yl)ethyl)piperazin-1-yl)pyrimidin-5-yl)(imino)(methyl)-λ^6-sulfanone]: the IC50 in data set [1] was less than 50 nM. Regarding `CCN=S(C)(=O)c1cnc(N2CCN(C(C)c3ccc4c(c3)OCC4)CC2)nc1` (single isomer, unassigned) [Example 18], in data set [1], the IC50 is less than 50 nM. For `CC(C)N=S(C)(=O)c1cnc(N2CCN(C(C)c3ccc4c(c3)OCC4)CC2)nc1` (single isomer, unassigned) [Example 19], the IC50 in data set [1] is less than 50 nM. Turning to `CC(c1ccc2scnc2c1)N1CCN(c2ncc(S(C)(=N)=O)cn2)CC1` (single isomer, unassigned) [Example 38, (R)-(2-(4-(1-(benzo[d]thiazol-5-yl)ethyl)piperazin-1-yl)pyrimidin-5-yl)(imino)(methyl)-λ^6-sulfanone or (S)-(2-(4-(1-(benzo[d]thiazol-5-yl)ethyl)piperazin-1-yl)pyrimidin-5-yl)(imino)(methyl)-λ^6-sulfanone], the IC50 in data set [1] fell in the range of 50 to 200 nM. Still for that read-out and setting: then `CC(c1ccc2scnc2c1)N1CCN(c2ncc(S(C)(=N)=O)cn2)CC1` (single isomer, unassigned) [Example 39, (R)-(2-(4-(1-(benzo[d]thiazol-5-yl)ethyl)piperazin-1-yl)pyrimidin-5-yl)(imino)(methyl)-λ^6-sulfanone or (S)-(2-(4-(1-(benzo[d]thiazol-5-yl)ethyl)piperazin-1-yl)pyrimidin-5-yl)(imino)(methyl)-λ^6-sulfanone], with less than 50 nM; and `CC(c1ccc2scnc2c1)N1CCN(c2ncc(S(C)(=N)=O)cn2)CC1` (single isomer, unassigned) [Example 40], with 1000 to 10000 nM; and `CC(c1ccc2scnc2c1)N1CCN(c2ncc(S(C)(=N)=O)cn2)CC1` (single isomer, unassigned) [Example 41], with 1000 to 10000 nM. For the compound `Cc1nc2cc(C(C)N3CCN(c4ncc(S(C)(=N)=O)cn4)CC3)ccc2s1` (single isomer, unassigned) [Example 52], the IC50 in data set [1] was 200 to 1000 nM. For the compound `Cc1nc2cc(C(C)N3CCN(c4ncc(S(C)(=N)=O)cn4)CC3)ccc2s1` (single isomer, unassigned) [Example 54], in data set [1], the IC50 fell in the range of 1000 to 10000 nM. For `CC(c1ccc2c(c1)OCC2)N1CCN(c2ncnc3c2CS(=N)(=O)C3)CC1` (stereo not shown) [Example 60, 4-(4-(1-(2,3-dihydrobenzofuran-6-yl)ethyl)piperazin-1-yl)-6-imino-6,7-dihydro-5H-6δ^4-thieno[3,4-d]pyrimidine 6-oxide], in data set [2], the fraction unbound at 5 h, 1 µM came out at 0.0779.
